In patent US12215092B2, “Pleiotropic pathway modifier compounds and method of treating diseases” (PPM BIOPHARMA LLC, priority 2023, dated 2025):
“Also recorded” adds a separate entry of the source.

Columns and labels:
HDAC = test: In situ HDAC activity fluorometric assay in cancer cells; assay type: cell-based, human; conditions: 24 h treatment, concentration dependent (FIG. 8)
Description: In Situ HDAC Activity Fluorometric Kit was purchased from Abcam and performed according to the manufacturer instructions. The cells (20,000) were seeded in a black walled 96-well plate and let to adhere overnight, then treated with DMSO or PPM compounds at indicated concentrations for 24 hrs. The media was then replaced with an HDAC substrate (acetylated peptide) dissolved in media and cells incubated for 3 hrs under cell culture conditions, followed by addition of the developer for 30 min to stop the reaction. The fluorescence was measured at Ex/Em=368/442 nm.

Aiolos = Aiolos (Homo sapiens, UniProt Q9UKT9); test: Automatic Western blot (Simple Western), targeted protein degradation: Aiolos; assay type: cell-based; conditions: 0.001-10 μM, 24 hours
Description: (§1) Targeted protein degradation in test samples were determined using the automated capillary-based nanoproteomic immunoassay Simple Western System (Protein Simple). Cultured cells were washed with cold PBS once and lysed in cold RIPA buffer supplemented with protease and phosphatase inhibitors. The solutions were then incubated at 4° C. for 30 minutes with gentle agitation to fully lyse cells. Each test sample was diluted at 0.4 mg/ml and mixed with 5× reducing buffer with fluorescent molecular weight (MW) standards. Afterwards the samples were heated to 95° C. for 5 minutes, and 5 μL samples were loaded into each capillary tube. Proteins were passed and separated through stacking and separation matrices for 30 minutes at 250 V. Proteins were then immobilized to capillary walls using optimal photoactivated capture chemistry. Following proteins immobilization, capillaries were flushed with a wash buffer and incubated with a blocking reagent for 6 min. Each target protein was probed with a specific primary antibody (diluted in blocking buffer and incubated for 38 min) and a horseradish peroxidase (HRP)-conjugated secondary antibody (ready to use solutions, incubated for 23 min). […] The resulting chemiluminescent signal was captured by a CCD camera, and signal intensities were analyzed using Compass Software (Protein Simple). […]

c-MYC = c-MYC (Homo sapiens, UniProt P01106); test: Automatic Western blot (Simple Western), targeted protein degradation: c-MYC; assay type: cell-based; conditions: for c-MYC in H929 cells (targeted protein degradation / expression): H929 human myeloma cells
Description: (§2) Targeted protein degradation in test samples were determined using the automated capillary-based nanoproteomic immunoassay Simple Western System (Protein Simple). Cultured cells were washed with cold PBS once and lysed in cold RIPA buffer supplemented with protease and phosphatase inhibitors. The solutions were then incubated at 4° C. for 30 minutes with gentle agitation to fully lyse cells. Each test sample was diluted at 0.4 mg/ml and mixed with 5× reducing buffer with fluorescent molecular weight (MW) standards. Afterwards the samples were heated to 95° C. for 5 minutes, and 5 μL samples were loaded into each capillary tube. Proteins were passed and separated through stacking and separation matrices for 30 minutes at 250 V. Proteins were then immobilized to capillary walls using optimal photoactivated capture chemistry. Following proteins immobilization, capillaries were flushed with a wash buffer and incubated with a blocking reagent for 6 min. Each target protein was probed with a specific primary antibody (diluted in blocking buffer and incubated for 38 min) and a horseradish peroxidase (HRP)-conjugated secondary antibody (ready to use solutions, incubated for 23 min). A mixture of luminol and peroxide was added following manufacturer's protocol. The resulting chemiluminescent signal was captured by a CCD camera, and signal intensities were analyzed using Compass Software (Protein Simple).
(§3) 1H929 or Jurkat cells were treated with DMSO, the positive control pomalidomide (an FDA-approved immunomodulatory agent) or the selected test compound (compound 4) at indicated concentrations (0.001-10 μM) for 24 hours. […] Ikaros and other proteins (Table 1),

target protein = test: Targeted protein degradation in H929 and Jurkat cells (overall statement); assay type: cell-based; conditions: H929 human multiple myeloma cells and Jurkat human leukemia cells, concentration dependent
Description: as §1

CRBN = CRBN (Homo sapiens, UniProt Q96SW2); test: Automatic Western blot (Simple Western), targeted protein degradation: CRBN; assay type: cell-based; conditions: 0.001-10 μM, 24 hours
Description: as §1

HDAC2 = HDAC2 (Homo sapiens, UniProt Q92769); test: Automatic Western blot (Simple Western), targeted protein degradation: HDAC2; assay type: cell-based; conditions: 0.001-10 μM, 24 hours
Description: as §2, §3

SEB induced PBMC = test: Luminex-based multiplex cytokine assay, SEB induced PBMC; assay type: cell-based, human; conditions: concentration-dependent (FIG. 7)
Eos = Eos (Homo sapiens, UniProt Q9H2S9); test: Automatic Western blot (Simple Western), targeted protein degradation: Eos; assay type: cell-based; conditions: 0.001-10 μM, 24 hours
Description: as §1

Ikaros = Ikaros (Homo sapiens, UniProt Q13422); test: Automatic Western blot (Simple Western), targeted protein degradation: Ikaros; assay type: cell-based; conditions: 0.001-10 μM, 24 hours
Description: as §2, §3

[1] = system: human solid tissue cancer cells; test: Cancer cell proliferation assay (CellTiter-Glo), solid tumors; assay type: cell-based; conditions: 3 days, concentration-dependent (FIG. 1)
Description: (§4) The cell proliferation of cancer cells was assessed using the CellTiter-Glo Luminescent Cell Viability Assay (Promega), per the manufacturer's protocol.
(§5) Briefly, in 96-well flat-bottom white-walled multiwell cell culture plates the control wells containing 100 μL/well medium without cells were used to obtain a value for background luminescence. For treatment wells, cells were seeded at 5,000 in 50 μL/well of complete RPMI-1640 medium and then mixed with 50 μL/well of the vehicle control (0.1% DMSO) or test compounds at indicated concentrations. Following cell incubation for 3 days at 37° C. in a humidified 5% CO2 incubator, the plates were equilibrated at room temperature for approximately 30 minutes. 100 μL of CellTiter-Glo® Reagent were added into each well and then contents were mixed for 2 minutes on an orbital plate shaker to induce cell lysis. After the plates were incubated at room temperature for 10 minutes, luminescent signals of each well were recorded with a Tecan M200 Plate Reader (Tecan Trading AG, Switzerland).
(§6) The following human cancer cells originated from various tissues were used to test the antiproliferative activity of PPM compounds (Table 2). […] The EC50 values for each test compounds were calculated using GraphPad Prizm. […]

LPS induced PBMC = test: Luminex-based multiplex cytokine assay, LPS induced PBMC; assay type: cell-based, human; conditions: concentration-dependent (FIG. 6)
GAPDH = test: Automatic Western blot (Simple Western): GAPDH (sample loading control); assay type: cell-based, human; conditions: 0.001-10 μM, 24 hours
Description: as §2, §3

Poly (I:C) induced PBMC = test: Luminex-based multiplex cytokine assay, Poly (I:C) induced PBMC; assay type: cell-based, human; conditions: concentration-dependent (FIG. 5)
[2] = system: human hematopoietic cancer cells; test: Cancer cell proliferation assay (CellTiter-Glo), blood cancer cells; assay type: cell-based; conditions: 3 days, concentration-dependent (FIG. 2)
Description: as §4, §5, §6

Chain of c-MYC (P01106 whole entry): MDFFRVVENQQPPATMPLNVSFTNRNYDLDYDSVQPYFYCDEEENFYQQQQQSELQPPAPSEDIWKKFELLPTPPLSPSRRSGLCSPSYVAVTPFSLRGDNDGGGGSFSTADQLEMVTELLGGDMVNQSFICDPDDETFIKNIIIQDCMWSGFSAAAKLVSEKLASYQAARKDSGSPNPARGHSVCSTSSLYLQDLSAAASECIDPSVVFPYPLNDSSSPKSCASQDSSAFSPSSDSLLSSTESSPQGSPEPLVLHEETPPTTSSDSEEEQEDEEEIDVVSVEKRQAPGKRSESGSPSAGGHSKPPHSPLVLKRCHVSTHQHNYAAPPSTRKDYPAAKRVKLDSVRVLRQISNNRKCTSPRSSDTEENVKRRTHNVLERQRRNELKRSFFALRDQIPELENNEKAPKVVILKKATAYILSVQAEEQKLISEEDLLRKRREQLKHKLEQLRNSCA
Chain of Ikaros (Q13422 whole entry): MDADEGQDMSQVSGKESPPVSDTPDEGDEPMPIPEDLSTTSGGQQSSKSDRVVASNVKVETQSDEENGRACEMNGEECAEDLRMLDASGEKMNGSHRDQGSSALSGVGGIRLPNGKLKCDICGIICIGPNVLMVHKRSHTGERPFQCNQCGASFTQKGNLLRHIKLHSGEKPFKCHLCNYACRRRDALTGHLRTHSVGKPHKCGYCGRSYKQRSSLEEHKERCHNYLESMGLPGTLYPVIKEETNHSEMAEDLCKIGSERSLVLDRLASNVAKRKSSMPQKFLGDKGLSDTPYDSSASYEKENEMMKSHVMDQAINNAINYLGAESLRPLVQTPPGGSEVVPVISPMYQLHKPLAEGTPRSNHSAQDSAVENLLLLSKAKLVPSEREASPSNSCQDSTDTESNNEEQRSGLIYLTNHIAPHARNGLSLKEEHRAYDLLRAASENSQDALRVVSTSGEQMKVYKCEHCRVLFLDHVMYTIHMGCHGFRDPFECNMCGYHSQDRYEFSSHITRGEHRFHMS
Chain of HDAC2 (Q92769 whole entry): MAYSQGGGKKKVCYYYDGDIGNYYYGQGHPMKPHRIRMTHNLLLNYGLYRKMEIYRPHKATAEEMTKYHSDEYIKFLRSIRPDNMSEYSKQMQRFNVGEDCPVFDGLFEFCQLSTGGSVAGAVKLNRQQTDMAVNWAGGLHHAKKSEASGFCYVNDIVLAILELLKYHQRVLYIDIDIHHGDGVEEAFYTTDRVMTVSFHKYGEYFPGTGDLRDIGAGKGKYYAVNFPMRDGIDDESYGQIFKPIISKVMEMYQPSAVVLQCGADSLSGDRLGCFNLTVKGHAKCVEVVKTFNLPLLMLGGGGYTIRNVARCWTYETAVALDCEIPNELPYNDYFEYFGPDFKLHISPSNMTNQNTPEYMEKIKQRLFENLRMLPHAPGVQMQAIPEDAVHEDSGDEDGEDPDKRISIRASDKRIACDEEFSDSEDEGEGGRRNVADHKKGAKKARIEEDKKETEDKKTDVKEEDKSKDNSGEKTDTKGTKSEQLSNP
Chain of CRBN (Q96SW2 whole entry): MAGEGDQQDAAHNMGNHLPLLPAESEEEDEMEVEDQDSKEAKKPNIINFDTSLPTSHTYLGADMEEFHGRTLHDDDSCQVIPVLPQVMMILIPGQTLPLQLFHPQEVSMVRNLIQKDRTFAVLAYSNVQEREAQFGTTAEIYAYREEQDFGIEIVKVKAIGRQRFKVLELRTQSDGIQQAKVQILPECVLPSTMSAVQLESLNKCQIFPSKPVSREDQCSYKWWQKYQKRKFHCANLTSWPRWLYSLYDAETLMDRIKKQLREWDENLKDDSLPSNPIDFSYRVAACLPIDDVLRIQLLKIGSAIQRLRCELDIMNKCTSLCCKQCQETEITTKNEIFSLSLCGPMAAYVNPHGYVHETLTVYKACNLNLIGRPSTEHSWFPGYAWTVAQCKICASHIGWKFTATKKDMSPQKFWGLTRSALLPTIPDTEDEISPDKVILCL
Chain of Aiolos (Q9UKT9 whole entry): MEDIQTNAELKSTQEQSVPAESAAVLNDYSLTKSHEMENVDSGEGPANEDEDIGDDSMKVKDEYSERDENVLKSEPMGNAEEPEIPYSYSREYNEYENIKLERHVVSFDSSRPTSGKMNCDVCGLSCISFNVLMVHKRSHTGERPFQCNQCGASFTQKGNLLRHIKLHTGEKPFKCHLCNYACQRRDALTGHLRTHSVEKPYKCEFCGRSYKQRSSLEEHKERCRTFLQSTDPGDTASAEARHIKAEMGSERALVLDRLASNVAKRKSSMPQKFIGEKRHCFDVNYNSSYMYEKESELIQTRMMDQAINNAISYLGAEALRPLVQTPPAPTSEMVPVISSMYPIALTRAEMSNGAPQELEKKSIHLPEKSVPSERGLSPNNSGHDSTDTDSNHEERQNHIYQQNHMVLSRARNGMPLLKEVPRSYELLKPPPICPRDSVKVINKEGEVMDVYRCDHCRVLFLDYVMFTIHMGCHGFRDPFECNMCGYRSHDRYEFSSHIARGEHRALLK
Chain of Eos (Q9H2S9 whole entry): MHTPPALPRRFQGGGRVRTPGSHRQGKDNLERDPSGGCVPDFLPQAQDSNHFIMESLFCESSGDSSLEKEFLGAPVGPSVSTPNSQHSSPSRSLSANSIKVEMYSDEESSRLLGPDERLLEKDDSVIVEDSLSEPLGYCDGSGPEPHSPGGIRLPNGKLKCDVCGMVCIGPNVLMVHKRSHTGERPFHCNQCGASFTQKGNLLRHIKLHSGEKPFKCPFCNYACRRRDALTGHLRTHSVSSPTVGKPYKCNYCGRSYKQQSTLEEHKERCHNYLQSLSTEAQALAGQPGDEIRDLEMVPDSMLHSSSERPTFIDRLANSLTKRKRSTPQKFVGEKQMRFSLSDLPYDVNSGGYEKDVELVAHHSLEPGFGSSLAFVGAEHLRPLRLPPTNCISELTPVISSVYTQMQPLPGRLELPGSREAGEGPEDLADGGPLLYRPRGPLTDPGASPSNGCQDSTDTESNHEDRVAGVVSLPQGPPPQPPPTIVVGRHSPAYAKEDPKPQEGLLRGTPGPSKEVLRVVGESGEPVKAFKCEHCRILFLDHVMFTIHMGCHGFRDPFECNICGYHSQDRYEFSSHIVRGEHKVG

O=C(CCCCc1ccc(C(=O)NCc2ccc3c(c2)CN(C2CCC(=O)NC2=O)C3=O)cc1)NO (stereo not drawn) [Compound 4, N-((2-(2,6-dioxopiperidin-3-yl)-1-oxoisoindolin-5-yl)methyl)-4-(5-(hydroxyamino)-5-oxopentyl)benzamide]
intracellular HDAC activity in human cancer cells (HDAC): inhibit intracellular HDAC activity; also recorded: suppressed intracellular HDAC activity
Aiolos in Jurkat cells (targeted protein degradation) (Aiolos): degraded
Compound-induced c-MYC degradation after pretreatment with the proteosome inhibitor bortezomib (c-MYC; H929 cells, bortezomib pretreatment): prevented
c-MYC in H929 cells (targeted protein degradation / expression) (c-MYC; 0.001-10 μM, 24 hours): reduced c-MYC and HDAC expression
c-MYC in H929 cells (targeted protein degradation / expression) (c-MYC; 0.001-10 μM, 24 hours, listed as compound 4): degraded
levels of c-MYC (c-MYC; H929 or Jurkat cells, 0.001-10 μM, 24 hours): clearly reduced
c-MYC in Jurkat cells (targeted protein degradation) (c-MYC; Jurkat cells, 0.001-10 μM, 24 hours): degraded
target protein degradation (target protein): caused target protein degradation
CRBN in H929 cells (targeted protein degradation) (CRBN; H929 cells): degraded
CRBN in Jurkat cells (targeted protein degradation) (CRBN; Jurkat cells): degraded
HDAC2 in H929 cells (targeted protein degradation / expression) (HDAC2): reduced c-MYC and HDAC expression; also recorded: reduced HDAC2 expression
HDAC2 in H929 cells (targeted protein degradation / expression) (HDAC2; listed as compound 4): degraded
levels of HDAC2 (HDAC2; H929 or Jurkat cells): clearly reduced
HDAC2 in Jurkat cells (targeted protein degradation) (HDAC2; Jurkat cells): degraded
cytokine production from SEB induced PBMC (SEB induced PBMC): enhanced cytokine production
Eos in Jurkat cells (targeted protein degradation) (Eos): degraded
Ikaros in H929 cells (targeted protein degradation) (Ikaros; H929 cells): degraded
levels of Ikaros (Ikaros; H929 or Jurkat cells): clearly reduced
Ikaros in Jurkat cells (targeted protein degradation / expression) (Ikaros): reduced Ikaros expression
Ikaros in Jurkat cells (targeted protein degradation / expression) (Ikaros; listed as compound 4): degraded
proliferation of human solid tissue cancer cells [1]: selectively suppressed the proliferation
cytokine production from LPS induced PBMC (LPS induced PBMC): suppressed cytokine production
GAPDH in H929 cells (expression, loading control) (GAPDH): no effect
GAPDH in H929 cells (expression, loading control) (GAPDH; listed as compound 4): No effect
GAPDH in Jurkat cells (expression, loading control) (GAPDH; Jurkat cells): No effect
cytokine production from Poly (I:C) induced PBMC (Poly (I:C) induced PBMC): suppressed cytokine production
proliferation of human hematopoietic cancer cells [2]: selectively suppressed the proliferation
